Source: patent publication US6833445B2, “Guanidinylation, guanidinoglycosides, uses, and methods of assaying their activity” (The Regents of the University of California, priority 2000, dated 2004)

What was measured:
[1] = target: HIV-1 Rev protein RNA recognition element (RRE); assay: Solid-phase assay: displacement of fluorescent Rev peptide from immobilized RRE; format: binding; conditions: for (e) Ratio (c)/(b): IC50 with polyA-polyU divided by IC50 without competitor, proportional to RRE selectivity; for change of ratio (c)/(b) upon guanidinylation: decrease = more selective for the RRE than amino precursor; for activity in the presence of competing nucleic acids: competing DNA / tRNA
Text: To facilitate the discovery of active guanidinoglycosides an assay system using HIV-1 response elements can be used. For example, RRE-specific binders as well as TAR specific binders can be identified using the methods of the present invention. The present invention provides a rapid screening assay and method depicted in FIG. 4. The Rev-RRE assay relies on the release of a fluorescently tagged Rev fragment from an immobilized RRE-Rev complex and can be performed under various stringency levels. The assay can be conducted in the presence of competing RNA molecules, other potential cellular targets, or cellular extracts. Only high affinity ligands can effectively compete with the bound Rev34-50 peptide (Kd is approximately 1 nM), thus releasing the highly fluorescent molecules into solution. Non-selective binders will be scavenged by competitor molecules present in solution.
In one embodiment, the present invention provides an assay for identifying a test compound which binds to RRE. The assay includes an immobilized RRE, a detectably labeled Rev, and a test compound. A test compound that liberates the labeled Rev due to competitive binding to the RRE results in an increase in the labeled Rev in the supernatant of the assay. Accordingly, following incubation of immobilized RRE, a labeled Rev, and a test compound, the supernatant is measured and the amount of label in the supernatant is determined. The amount of label in the supernatant is indicative of the degree or ability of the test compound to bind to the RRE or REV polypeptide. By comparing the amount of label in the supernatant with the amount in a control or standard sample, one can identify a test compound which effectively competes with the Rev for binding to RRE. […] In the depicted embodiment of FIG. 4 the ternary complex containing a fluorescently tagged Rev peptide bound to an immobilized RRE is incubated with the test compound (e.g., a potential competitor, binding agent or inhibitor)under conditions and in the presence of competing RNA molecules n a microcentrifuge filter tube. After incubation, the mixture is filtered and the filtrate is illuminated. In the presence of a strong and selective RRE binder, the fluorescently labeled peptide will be released from the beads into solution and the filtrate will become fluorescent.
The basic principle of the assay systems used to identify compounds that inhibit binding of Rev to RRE or compounds that interact with RRE involves preparing a reaction mixture containing the target (e.g., RRE) and the binding partner (e.g., labeled-Rev) under conditions and for a time sufficient to allow the two to interact and bind, thus form a complex. In order to test a compound for inhibitory activity, the reaction mixture is prepared in the presence and absence of the test compound. The test compound can be initially included in the reaction mixture, or can be added at a time subsequent to the addition of the RRE and its binding partner, Rev. Control reaction mixtures are incubated without the test compound or with a placebo. The presence of labeled-Rev that is not bound to RRE over that amount found in a control or standard sample is indicative of a test compound that competes with Rev for binding to RRE.
A novel solid-phase assembly was used to evaluate the RNA specificity of the new derivatives. This assay relies on the displacement of a fluorescent Rev peptide from a solid-phase immobilized RRE and can be performed in the presence of competing nucleic acids. Table 4 (columns b-d) summarizes the IC50 values determined by this method. By comparing IC50 values measured in the absence of any competitors to the values measured in the presence of DNA or RNA, a quantitative measure for the relative selectivity of each ligand can be made. Aminoglycosides have a substantial affinity to poly A-poly U duplex RNA (compare column b to c, Table 4). […] For neomycin, this ratio increases upon guanidinylation, indicating a lower RRE selectivity. […]

[2] = target: HIV-1 Rev protein RNA recognition element (RRE); assay: Fluorescence anisotropy: displacement of fluorescein-labeled Rev peptide from the RRE in solution; format: binding; conditions: for increase in inhibitory activity upon guanidinylation relative to the parent compound: fluorescence anisotropy IC50, guanidinylated vs parent
Text: In a modification of the above assay, the solid support aspect of the above embodiment is removed. The biophysical characteristics of potential inhibitory test compounds can be detected by fluorescence anisotropy as depicted in FIG. 5. The RRE-bound fluorescent peptide has a slower Brownian tumbling motion relative to the free peptide in solution. Upon displacement of the fluorescently labeled Rev from the RRE by a competing inhibitor, a decrease in the anisotropy value is observed. The displacement of the labeled-Rev can be followed by monitoring the anisotropy at the emission wavelength of the Rev34-50-bound fluorophore.
The HIV-1 Rev-RRE interaction was used to examine the impact of guanidinylation upon RNA binding, and to probe the potential antiviral activity of these compounds. The binding of Rev to the RRE (Rev response element) is responsible for the export of unspliced and singly spliced HIV genomic RNA out of the host nucleus. This essential protein-RNA interaction remains an important, and nonutilized, therapeutic target. The high-affinity Rev binding site on the RRE has been localized to the purine-rich bulge. The binding of Rev to the RRE is governed by the arginine-rich fragment, Rev34-50. Key guanidinium groups make direct contacts with the RNA platform and are essential for the specific binding of Rev to the RRE. Fluorescence anisotropy has been employed to determine the affinity of the new derivatives to the RRE in solution. The RRE-bound fluorescent Rev peptide has a slower Brownian tumbling motion relative to the free peptide. Upon displacement of the fluorescein-labeled Rev peptide from the RRE by an inhibitor, a decrease in the anisotropy value is observed. Table 4 (column a) compares the IC50 values of the guanidinoglycosides to the aminoglycosides. Guanidinylation of kanamycin A, kanamycin B, and tobramycin results in a greater than 10-fold increase in inhibitory activity relative to the parent compounds. A 5-fold increase in activity is observed upon guanidinylation of neomycin B and paromomycin.

HIV-1 = assay: Inhibition of viral replication in HIV-1-infected CD4+ HeLa cells (plaque formation); format: cell-based
Protocol: By converting aminoglycosides into guanidinoglycosides the biological activities of these glycosides were dramatically affected. Neomycin B was reported to be an in vivo and in vitro inhibitor of Rev-RRE binding, as well as an effective inhibitor of HIV-1 replication in vivo. The ability of guanidinoneomycin B and guanidinotobramycin to inhibit viral replication in HIV-1-infected CD4+ HeLa cells was measured and compared to the antiviral activities of neomycin B and tobramycin (FIG. 6). As evidenced by the dose-dependent decrease in plaque formation, the guanidinoglycosides inhibit HIV replication with activities approximately 100 times higher than their amino precursors (FIG. 6). The antiviral activity of the guanidinoglycosides may be related to their ability to bind the RRE with high affinity and specificity, thus preventing the HIV-1 Rev-RRE interaction and viral replication.

[3] = 15 ug/mL plasmid DNA (pGEM), read-out: IC50 (d) Solid-Phase + DNA
[4] = 15 ug/mL polyA-polyU duplex RNA, read-out: IC50 (c) Solid-Phase + poly A polyU
[5] = Solid-phase, no competitor (Table 4), read-out: IC50 (b) Solid-Phase
[6] = Fluorescence Anisotropy (Table 4), read-out: IC50 (a) Anisotrophy
[7] = Fluorescence Anisotropy, guanidino form of the glycoside (Table 3), read-out: IC50 (uM) guandino form
[8] = Fluorescence Anisotropy, amino form of the glycoside (Table 3), read-out: IC50 (uM) amino form
[9] = Solid Phase Assay, competing DNA (Table 2), read-out: IC50 with DNA
[10] = Solid Phase Assay, competing tRNA (Table 2), read-out: IC50 with tRNA
[11] = Solid Phase Assay, no competitor (Table 2), read-out: IC50

| SMILES | IC50 [1, 3] [µM] | IC50 [1, 4] [µM] | (e) Ratio (c)/(b) [1] | IC50 [1, 5] [µM] | IC50 [2, 6] [µM] | change of ratio (c)/(b) upon guanidinylation [1] | IC50 [2, 7] [µM] | inhibition of HIV replication, activity relative to parent aminoglycoside (HIV-1) | IC50 [2, 8] [µM] | increase in inhibitory activity upon guanidinylation relative to the parent compound [2] [fold] | IC50 [1, 9] [µM] | IC50 [1, 10] [µM] | IC50 [1, 11] [µM] | activity in the presence of competing nucleic acids ([1]; solid phase assay) | more active when compared to tobramycin that has not been guanidinylated ([1]; solid phase assay) |
| --- | --- | --- | --- | --- | --- | --- | --- | --- | --- | --- | --- | --- | --- | --- | --- |
| N=C(N)NCC1OC(OC2C(CO)OC(OC3C(O)C(NC(=N)N)CC(NC(=N)N)C3OC3OC(CO)C(O)C(O)C3NC(=N)N)C2O)C(NC(=N)N)C(O)C1O (centres unmarked) [guanidino-paromomycin, Guanidino Paromomycin] | 16 | 20 | 1.4 | 14 | 18 |  |  |  |  |  |  |  |  |  |  |
| NC[C@H]1O[C@H](O[C@H]2[C@H](O)[C@@H](O[C@H]3O[C@H](CO)[C@@H](O)[C@H](N)[C@H]3O)[C@H](N)C[C@@H]2N)[C@H](N)[C@@H](O)[C@@H]1O [KanamycinB, Kanamycin B] | 90 | 160 | 2.0 | 80 | 80 | decreases |  |  |  |  |  |  |  |  |  |
| N=C(N)NC[C@@H]1O[C@H](O[C@H]2[C@@H](O)[C@H](O[C@@H]3[C@@H](O)[C@H](NC(=N)N)C[C@H](NC(=N)N)[C@H]3O[C@H]3O[C@H](CNC(=N)N)[C@@H](O)[C@H](O)[C@H]3NC(=N)N)O[C@@H]2CO)[C@H](NC(=N)N)[C@@H](O)[C@@H]1O [guanidino-neomycin B, Guanidino Neomycin] | 0.9 | 4.5 | 5.6 | 0.8 | 1.3 |  | 0.2 | approximately 100 times |  |  |  |  |  |  |  |
| NC(N)=NC[C@@H]1O[C@H](O[C@H]2[C@H](O)[C@@H](O[C@H]3O[C@@H](CO)[C@H](O)[C@@H](N=C(N)N)[C@@H]3O)[C@H](N=C(N)N)C[C@@H]2N=C(N)N)[C@@H](O)[C@H](O)[C@H]1O [guanidino-kanamycinA, Guanidino Kanamycin A] | 55 | 60 | 1.2 | 50 | 65 |  | 8 |  |  |  |  |  |  |  |  |
| NC[C@@H]1O[C@H](O[C@H]2[C@@H](O)[C@H](O[C@@H]3[C@@H](O)[C@H](N)C[C@H](N)[C@H]3O[C@H]3O[C@H](CN)[C@@H](O)[C@H](O)[C@H]3N)O[C@@H]2CO)[C@H](N)[C@@H](O)[C@@H]1O [Neomycin B, Neomycin] | 8 | 16 | 2.7 | 6 | 6 | increases |  |  | 1 | 5 |  |  |  |  |  |
| N=C(N)NCC1OC(OC2C(NC(=N)N)CC(NC(=N)N)C(OC3OC(CO)C(O)C(NC(=N)N)C3O)C2O)C(NC(=N)N)C(O)C1O (centres unmarked) [guanidino-kanamycinB, Guanidino Kanamycin B] | 3.5 | 4.7 | 1.6 | 3 | 3.5 |  |  |  |  |  |  |  |  |  |  |
| NC[C@H]1O[C@H](O[C@H]2[C@H](O)[C@@H](O[C@H]3O[C@H](CO)[C@@H](O)[C@H](N)[C@H]3O)[C@H](N)C[C@@H]2N)[C@H](O)[C@@H](O)[C@@H]1O [KanamycinA, Kanamycin A] | 750 | 1300 | 1.9 | 700 | 750 | decreases |  |  | 100 |  |  |  |  |  |  |
| NC[C@@H]1O[C@H](O[C@H]2[C@@H](O)[C@H](O[C@@H]3[C@@H](O)[C@H](N)C[C@H](N)[C@H]3O[C@H]3O[C@H](CO)[C@@H](O)[C@H](O)[C@H]3N)O[C@@H]2CO)[C@H](N)[C@@H](O)[C@@H]1O [Paromomycin] | 60 | 110 | 2.0 | 55 | 65 | decreases |  |  |  | 5 |  |  |  |  |  |
| NC[C@H]1O[C@H](O[C@H]2[C@H](O)[C@@H](O[C@H]3O[C@H](CO)[C@@H](O)[C@H](N)[C@H]3O)[C@H](N)C[C@@H]2N)[C@H](N)C[C@@H]1O [Tobramycin] | 50 | 140 | 3.1 | 45 | 44 | decreases |  |  | 10 |  | 55 | 1.1 | 50 | significantly lower activity in the presence of tRNA |  |
| N=C(N)NCC1OC(OC2C(NC(=N)N)CC(NC(=N)N)C(OC3OC(CO)C(O)C(NC(=N)N)C3O)C2O)C(NC(=N)N)CC1O (centres unmarked) [guanidino-tobramycin] | 3.5 | 5 | 1.7 | 3 | 3.8 |  | 0.65 | approximately 100 times |  |  | 3 | 3.5 | 2.5 | approximately the same activity in the presence of both competing DNA and tRNA | about 20 fold |
